Laboratory results reported in article PMC2841792 (Journal of medicinal chemistry, 2010).
Entries after “also recorded” stand apart in the source; their conditions may differ. Where a name gives a salt, the structure may show the parent alone. Read-outs that look alike come from different tables or passages of the source.

Tests used:
neuron = settings: not told; cited from earlier work
BoNT/A LC [1] = target: T1, BoNT/A LC (Clostridium botulinum, UniProt P0DPI0); experiment: biochemical; type: biochemical
MMP-9 = MMP-9 (Homo sapiens, UniProt P14780); type: biochemical
human MMP-1 = target: T2, human MMP-1 (Homo sapiens, UniProt P03956); type: biochemical
T2 sequence (P03956 100-469): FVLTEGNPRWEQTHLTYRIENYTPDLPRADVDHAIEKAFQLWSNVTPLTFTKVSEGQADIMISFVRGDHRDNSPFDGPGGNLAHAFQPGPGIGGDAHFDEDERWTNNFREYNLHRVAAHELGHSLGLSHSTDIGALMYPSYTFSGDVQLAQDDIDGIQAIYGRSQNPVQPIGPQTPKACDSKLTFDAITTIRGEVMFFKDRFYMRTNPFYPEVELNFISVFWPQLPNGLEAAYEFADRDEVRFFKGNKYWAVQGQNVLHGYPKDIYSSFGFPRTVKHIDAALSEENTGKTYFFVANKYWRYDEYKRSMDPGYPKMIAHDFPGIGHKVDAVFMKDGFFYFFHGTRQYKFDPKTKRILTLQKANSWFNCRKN

chick neuronal assay = type: cell-based
BoNT/B LC = BoNT/B LC (Clostridium botulinum, UniProt P10844); type: biochemical
[2] = target: anthrax lethal factor (LF) (Bacillus anthracis, UniProt P15917); experiment: biochemical
BoNT/A LC [3] = target: T1, BoNT/A LC; experiment: biochemical

Sequence of BoNT/B LC (P10844 2-441 limits assumed): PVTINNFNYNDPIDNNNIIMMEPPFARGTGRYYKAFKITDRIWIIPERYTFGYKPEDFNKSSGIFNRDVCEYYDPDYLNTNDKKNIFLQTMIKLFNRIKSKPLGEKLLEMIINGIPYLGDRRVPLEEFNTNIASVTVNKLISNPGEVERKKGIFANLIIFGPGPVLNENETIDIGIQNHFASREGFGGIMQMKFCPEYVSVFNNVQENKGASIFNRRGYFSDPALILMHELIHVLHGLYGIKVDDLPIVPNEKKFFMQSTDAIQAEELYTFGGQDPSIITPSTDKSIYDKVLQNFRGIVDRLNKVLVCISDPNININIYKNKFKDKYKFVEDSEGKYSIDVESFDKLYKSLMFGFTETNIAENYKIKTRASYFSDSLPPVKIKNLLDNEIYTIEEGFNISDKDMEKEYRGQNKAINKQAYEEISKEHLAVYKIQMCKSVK
Sequence of MMP-9 (P14780 94-707): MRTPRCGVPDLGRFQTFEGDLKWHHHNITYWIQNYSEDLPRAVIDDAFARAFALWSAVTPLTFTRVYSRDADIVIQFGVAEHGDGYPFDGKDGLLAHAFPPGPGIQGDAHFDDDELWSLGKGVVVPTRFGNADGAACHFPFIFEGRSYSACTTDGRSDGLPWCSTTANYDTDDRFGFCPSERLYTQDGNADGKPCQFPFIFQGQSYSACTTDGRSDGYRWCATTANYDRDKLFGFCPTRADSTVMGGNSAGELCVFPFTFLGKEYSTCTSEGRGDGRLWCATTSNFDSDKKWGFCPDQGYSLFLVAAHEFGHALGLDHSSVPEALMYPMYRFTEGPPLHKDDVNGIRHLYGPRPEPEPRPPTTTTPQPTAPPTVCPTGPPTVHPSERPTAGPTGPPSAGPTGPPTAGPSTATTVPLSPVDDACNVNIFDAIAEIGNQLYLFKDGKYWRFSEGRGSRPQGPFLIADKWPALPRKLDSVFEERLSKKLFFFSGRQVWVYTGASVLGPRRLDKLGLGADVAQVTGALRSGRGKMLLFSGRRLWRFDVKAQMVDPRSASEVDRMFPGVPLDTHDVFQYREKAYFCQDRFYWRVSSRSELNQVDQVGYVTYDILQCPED
Sequence of anthrax lethal factor (LF) (P15917 34-809 limits assumed): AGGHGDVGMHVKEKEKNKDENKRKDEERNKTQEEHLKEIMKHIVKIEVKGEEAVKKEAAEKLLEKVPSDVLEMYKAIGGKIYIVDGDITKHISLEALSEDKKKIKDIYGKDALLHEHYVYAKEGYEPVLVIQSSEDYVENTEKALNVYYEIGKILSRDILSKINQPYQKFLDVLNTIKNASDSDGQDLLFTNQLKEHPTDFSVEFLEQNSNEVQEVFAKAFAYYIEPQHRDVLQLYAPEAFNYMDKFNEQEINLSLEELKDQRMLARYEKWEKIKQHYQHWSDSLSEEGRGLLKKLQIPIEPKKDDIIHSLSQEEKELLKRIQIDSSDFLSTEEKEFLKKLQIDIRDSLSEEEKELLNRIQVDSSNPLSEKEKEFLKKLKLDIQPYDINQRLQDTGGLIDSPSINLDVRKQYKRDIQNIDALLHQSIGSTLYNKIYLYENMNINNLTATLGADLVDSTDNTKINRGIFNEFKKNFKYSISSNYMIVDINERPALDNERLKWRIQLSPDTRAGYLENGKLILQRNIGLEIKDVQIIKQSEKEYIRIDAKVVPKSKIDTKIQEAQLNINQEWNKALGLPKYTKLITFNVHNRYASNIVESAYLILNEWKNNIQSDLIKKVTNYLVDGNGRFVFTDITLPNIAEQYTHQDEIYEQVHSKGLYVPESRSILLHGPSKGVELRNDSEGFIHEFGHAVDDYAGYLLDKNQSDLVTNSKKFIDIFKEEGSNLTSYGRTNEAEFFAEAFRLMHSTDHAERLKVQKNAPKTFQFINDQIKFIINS
T1 sequence (P0DPI0 2-448 limits assumed): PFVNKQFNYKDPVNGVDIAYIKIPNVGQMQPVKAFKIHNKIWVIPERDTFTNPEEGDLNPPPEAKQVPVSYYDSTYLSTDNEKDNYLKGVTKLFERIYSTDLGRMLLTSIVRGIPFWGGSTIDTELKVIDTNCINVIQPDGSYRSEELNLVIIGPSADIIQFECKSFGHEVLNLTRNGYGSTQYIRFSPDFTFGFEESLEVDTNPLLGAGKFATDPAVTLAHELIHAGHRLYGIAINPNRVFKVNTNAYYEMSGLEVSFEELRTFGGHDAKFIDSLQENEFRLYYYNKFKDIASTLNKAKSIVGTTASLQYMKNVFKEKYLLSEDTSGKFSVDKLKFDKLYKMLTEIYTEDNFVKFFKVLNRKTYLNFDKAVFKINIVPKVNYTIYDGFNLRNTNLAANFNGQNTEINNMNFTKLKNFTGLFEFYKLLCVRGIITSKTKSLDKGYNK

Row | SMILES | IC50 (BoNT/A LC [1]) | IC50 [2] | other results
1 | Cl.Cl.N=C(N)c1ccc(Oc2ccc(-c3cc4ccc(C(=N)N)cc4[nH]3)cc2)cc1 [Compound 5] | – | – | neuron permeability (neuron): neuron-permeable
2 | N#Cc1ccc(Oc2ccc(-c3cc4ccc(C(=N)N)cc4[nH]3)cc2)cc1 [Compound 11, 2-(4-(4-Cyanophenoxy)phenyl)-1H-indole-6-carboximidamide hydrochloride salt] | – | – | inhibitory activity against BoNT/A LC (in words) (BoNT/A LC [1]): no activity
3 | CN(C)CC/N=C(\N)c1ccc(Oc2ccc(-c3cc4ccc(/C(N)=N/CCN(C)C)cc4[nH]3)cc2)cc1 [Compound 12] | – | – | dependence of inhibitory activity on Zn concentration (BoNT/A LC [1]): independent of the Zn concentration; fold more potent than the lead structure (compound 5) against BoNT/A LC (BoNT/A LC [1]): 4.4 fold; inhibitory activity against MMP-9 (MMP-9): no inhibitory activities; also recorded: does not inhibit; inhibitory activity against human MMP-1 (human MMP-1): no inhibitory activities; also recorded: does not inhibit; cellular activity in a chick neuronal assay (chick neuronal assay): showed cellular activity; inhibitory activity against BoNT/B (BoNT/B LC): no inhibitory activities; also recorded: does not inhibit
4 | OC1CN=C(c2ccc(Oc3ccc(-c4cc5ccc(C6=NCC(O)CN6)cc5[nH]4)cc3)cc2)NC1 (stereo not drawn) [Compound 15, 2-(4-(4-(6-(5-Hydroxy-1,4,5,6-tetrahydropyrimidin-2-yl)-1H-indol-2-yl)phenoxy)phenyl)-1,4,5,6-tetrahydropyrimidin-5-ol] | – | – | selectivity for BoNT/A LC versus anthrax LF (BoNT/A LC [1]): over ten-fold
5 | N#Cc1ccc(Oc2ccc(-c3cc4ccc(C5=NCCN5)cc4[nH]3)cc2)c(Cl)c1 [Compound 24c, 2-(4-(2-Chloro-4-cyanophenoxy)phenyl)-6-(4,5-dihydro-1H-imidazol-2-yl)indole] | – | – | fold less potent than bis-imidazoline 13 against BoNT/A LC (BoNT/A LC [1]): 2.4 fold; inhibitory activity against BoNT/A LC (in words) (BoNT/A LC [1]): maintain inhibitory activity
6 | Clc1ccc(Oc2ccc(-c3cc4ccc(C5=NCCN5)cc4[nH]3)cc2)c(Cl)c1 [Compound 29, 2-(4-(2,4-Dichlorophenoxy)phenyl)-6-(4,5-dihydro-1H-imidazol-2-yl)-1H-indole] | – | – | inhibitory activity against BoNT/A LC (in words) (BoNT/A LC [1]): maintain inhibitory activity
7 | N#Cc1ccc2cc(-c3ccc(F)cc3)[nH]c2c1 [Compound 39, 2-(4-Fluorophenyl)-1H-indole-6-carbonitrile] | > 100 µM | > 100 µM | –
8 | NC(=O)c1ccc2cc(-c3ccc(F)cc3)[nH]c2c1 [Compound 40a, 2-(4-Fluorophenyl)-1H-indole-6-carboxamide] | > 100 µM | > 100 µM | –
9 | N=C(N)c1ccc2cc(-c3ccc(F)cc3)[nH]c2c1 [Compound 40b, 2-(4-Fluorophenyl)-1H-indole-6-carboximidamide] | > 100 µM | 48 µM | –
10 | Fc1ccc(-c2cc3ccc(C4=NCCN4)cc3[nH]2)cc1 [Compound 40c, 6-(4,5-Dihydro-1H-imidazol-2-yl)-2-(4-fluorophenyl)-1H-indole] | > 100 µM | 40 µM | –
11 | COc1ccc(-c2cc3ccc(C(N)=O)cc3[nH]2)cc1 [Compound 43a, 2-(4-Methoxyphenyl)-1H-indole-6-carboxamide] | > 100 µM | > 100 µM | –
12 | COc1ccc(-c2cc3ccc(C(=N)N)cc3[nH]2)cc1 [Compound 43b, 2-(4-Methoxyphenyl)-1H-indole-6-carboximidamide] | > 100 µM | > 100 µM | –
13 | COc1ccc(-c2cc3ccc(C4=NCCN4)cc3[nH]2)cc1 [Compound 43c, 2-(4-Methoxyphenyl)-6-(4,5-dihydro-1H-imidazol-2-yl)-1H-indole] | 45 µM | 61 µM | –
14 | c1cc(-c2cc3ccc(C4=NCCN4)cc3[nH]2)ccc1C1=NCCN1 [Compound 44a, 6-(4,5-Dihydro-1H-imidazol-2-yl)-2-(4-(4,5-dihydro-1H-imidazol-2-yl)phenyl)-1H-indole] | – | – | inhibitory activity against MMP-9 (MMP-9): no inhibitory activities; inhibitory activity against human MMP-1 (human MMP-1): no inhibitory activities; inhibitory activity against BoNT/B (BoNT/B LC): no inhibitory activities
15 | c1cc(-c2cc3ccc(C4=NCCN4)cc3s2)ccc1C1=NCCN1 [Compound 46a, 2-(4-(6-(4,5-Dihydro-1H-imidazol-2-yl)benzo[b]thiophen-2-yl)phenyl)-4,5-dihydro-1H-imidazole] | – | – | IC50 (BoNT/A LC [3]): 28 µM
16 | NC(=O)c1ccc2cc(-c3ccc(F)cn3)sc2c1 [Compound 49, 2-(5-Fluoro-2-pyridyl)-6-benzo[b]thiophenecarboxamide] | > 100 µM | > 100 µM | –
17 | NCCNc1ccc(-c2cc3ccc(C4=NCCN4)cc3s2)nc1 [Compound 50, N^1–(6-(6-(4,5-Dihydro-1H-imidazol-2-yl)benzo[b]thiophen-2-yl)pyridine-3-yl)ethane-1,2-diamine] | – | > 100 µM | –
